Data set [1] in a line: In vivo pharmacokinetics, rat. The arrangement: species or system Male Sprague-Dawley rats. As to conditions: male, Sprague-Dawley, plasma, iv, 0.3 mg/kg.
Data set [2] in a line: In vivo pharmacokinetics, dog. As to conditions: male, beagle, plasma, iv, 0.3 mg/kg. More on the design: species or system Male beagle dogs.
A further data set in a line: in vitro. As to conditions: rat, microsomes, pH 7.4.
Another data set is described as follows: Caco-2 permeability. It is filed as in vitro ADME. A general note: Caco-2 cells form a polarised layer with tight junctions and transporters.

As to `CNC(=O)c1cn(C[C@H](F)CCc2ccc(NC(=O)Cc3cc(OC4CC(F)(F)C4)ccn3)nn2)nn1` [Compound 24], the clearance in data set [1] and in data set [2] was 3 mL/min/kg in each case.

`CNC(=O)c1cn(C[C@H](F)CCc2ccc(NC(=O)Cc3cc(-c4cccc(OC(F)(F)F)c4)ccn3)nn2)nn1` [Compound 25]: the figures for the clearance in data set [1] and in data set [2] were 8 mL/min/kg and 2.9 mL/min/kg, respectively. In addition, the CLint scaled (usually a measure of how fast metabolising enzymes remove a compound, apart from limits set by blood flow) at 1 uM in “in vitro” is 22 mL/min/kg.

For the compound `CNC(=O)c1cn(C[C@H](F)CCc2ccc(NC(=O)Cc3cc(C(F)(F)F)cc(C)n3)nn2)nn1` [Compound 26], the clearance (as a rule, a measure of how efficiently the substance is removed, as volume per time) came to 1 mL/min/kg in data set [1] and 0.9 mL/min/kg in data set [2].

For `CNC(=O)c1cn(C[C@H](F)CCc2ccc(NC(=O)Cc3cc(OC4CC(F)(F)C4)cc(C)n3)nn2)nn1` [Compound 27, (R)-1-(4-(6-(2-(4-(3,3-difluorocyclobutoxy)-6-methylpyridin-2-yl)acetamido)pyridazin-3-yl)-2-fluorobutyl)-N-methyl-1H-1,2,3-triazole-4-carboxamide], in the data set “Caco-2 permeability”, the “efflux in Caco-2 assay” value is reported as “mild efflux”. Besides, the clearance in data set [1] worked out at 0.3 mL/min/kg; in data set [2], 0.6 mL/min/kg.

The values above are taken from publication PMC9007139 (Journal of medicinal chemistry, 2020).
